According to ChEMBL document CHEMBL1132690, “Design, synthesis, and biological evaluation of potent thiazine- and thiazepine-based matrix metalloproteinase inhibitors” (J Med Chem, 1999):

Molecular target: T1, Matrilysin (Homo sapiens, UniProt P09237)
T1 sequence (P09237 whole entry): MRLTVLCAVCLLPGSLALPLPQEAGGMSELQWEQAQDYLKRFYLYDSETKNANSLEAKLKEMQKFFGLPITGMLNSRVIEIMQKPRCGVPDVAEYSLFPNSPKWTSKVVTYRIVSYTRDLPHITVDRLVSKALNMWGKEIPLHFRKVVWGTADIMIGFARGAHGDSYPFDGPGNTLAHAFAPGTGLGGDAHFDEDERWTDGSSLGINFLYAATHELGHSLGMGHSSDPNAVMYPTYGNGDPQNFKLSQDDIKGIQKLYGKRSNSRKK
Description: In vitro inhibitory activity against matrilysin (matrix metalloprotease-7).

Row | IC50 | Compound
1 | 2390 nM | COc1ccc(S(=O)(=O)N2CCNCC2C(=O)NO)cc1 (centres undefined)
2 | 54 nM | COc1ccc(S(=O)(=O)N2[C@@H](C(=O)NO)C(C)(C)SCC[C@H]2c2ccccc2)cc1
3 | 17700 nM | COc1ccc(S(=O)(=O)N2CCCSC[C@@]2(C)C(=O)NO)cc1
4 | 330 nM | CCCCCc1ccc(S(=O)(=O)N2CCCSC(C)(C)[C@@H]2C(=O)NO)cc1
5 | 38 nM | COCOC1CSC(C)(C)[C@H](C(=O)NO)N(S(=O)(=O)c2ccc(OC)cc2)C1 (some centres undefined)
6 | 17 nM | CC1(C)SCCCN(S(=O)(=O)c2ccc(Br)cc2)[C@H]1C(=O)NO
7 | < 100 nM | CC1(C)SCCCN(S(=O)(=O)c2ccc(-c3ccc(F)cc3)cc2)[C@H]1C(=O)NO
8 | 79 nM | CC1(C)[C@H](C(=O)NO)N(S(=O)(=O)c2ccc(Br)cc2)CCCS1(=O)=O
9 | 354 nM | Cc1cc(Br)ccc1S(=O)(=O)N1CCCSC(C)(C)[C@@H]1C(=O)NO
10 | 895 nM | COc1ccc(S(=O)(=O)N2CCCCCC2C(=O)NO)cc1 (centres undefined)
11 | 170 nM | CC1(C)SCCCN(S(=O)(=O)c2ccc(-c3ccccn3)s2)[C@H]1C(=O)NO
12 | 16 nM | CC1(C)SCCCN(S(=O)(=O)c2ccc(Oc3ccccc3)cc2)[C@H]1C(=O)NO

Molecular target: T2, Interstitial collagenase (Homo sapiens, UniProt P03956)
T2 sequence (P03956 whole entry): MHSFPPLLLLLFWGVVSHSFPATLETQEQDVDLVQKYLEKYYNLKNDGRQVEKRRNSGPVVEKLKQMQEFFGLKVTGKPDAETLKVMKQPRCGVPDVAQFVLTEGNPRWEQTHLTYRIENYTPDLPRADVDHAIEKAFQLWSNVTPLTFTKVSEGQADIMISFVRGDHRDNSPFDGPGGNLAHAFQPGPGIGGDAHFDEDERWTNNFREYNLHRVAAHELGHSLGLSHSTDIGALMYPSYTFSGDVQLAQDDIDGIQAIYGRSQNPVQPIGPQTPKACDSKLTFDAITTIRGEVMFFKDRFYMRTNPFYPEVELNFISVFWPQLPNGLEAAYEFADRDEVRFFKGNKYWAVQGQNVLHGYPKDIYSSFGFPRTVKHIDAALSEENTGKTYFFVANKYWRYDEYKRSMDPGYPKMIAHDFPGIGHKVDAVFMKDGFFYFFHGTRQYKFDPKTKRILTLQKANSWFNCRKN
Description: In vitro inhibitory activity against truncated collagenase-1 (matrix metalloprotease-1).

Row | IC50 | Compound
13 | 49.5 nM | COc1ccc(S(=O)(=O)N2CCOCC2C(=O)NO)cc1 (centres undefined)
14 | 1.9 nM | COc1ccc(S(=O)(=O)N2C[C@@H](O)CS(=O)(=O)C(C)(C)[C@@H]2C(=O)NO)cc1
15 | 297 nM | COc1ccc(S(=O)(=O)N2CCCC2C(=O)NO)cc1 (centres undefined)
16 | 638 nM | COc1ccc(S(=O)(=O)N2CSCC2C(=O)NO)cc1 (centres undefined)
17 | 18 nM | CCCCOc1ccc(S(=O)(=O)N2CCCSC(C)(C)[C@@H]2C(=O)NO)cc1
18 | 175 nM | COc1ccc(S(=O)(=O)N2CCNCC2C(=O)NO)cc1 (centres undefined)
19 | 236 nM | COc1ccc(S(=O)(=O)N2[C@@H](C(=O)NO)C(C)(C)SCC[C@H]2c2ccccc2)cc1
20 | 217 nM | COc1ccc(S(=O)(=O)N2CCCSC[C@@]2(C)C(=O)NO)cc1
21 | 61 nM | CCCCCc1ccc(S(=O)(=O)N2CCCSC(C)(C)[C@@H]2C(=O)NO)cc1
22 | 0.7 nM | CC1(C)SCCCN(S(=O)(=O)c2ccc(Br)cc2)[C@H]1C(=O)NO
23 | 2.9 nM | CC1(C)SCCCN(S(=O)(=O)c2ccc(-c3ccc(F)cc3)cc2)[C@H]1C(=O)NO
24 | 13 nM | COc1ccc(S(=O)(=O)N2CCS(=O)(=O)C(C)(C)[C@@H]2C(=O)NO)cc1
25 | 1.2 nM | CC1(C)[C@H](C(=O)NO)N(S(=O)(=O)c2ccc(Br)cc2)CCCS1(=O)=O
26 | 0.5 nM | Cc1cc(Br)ccc1S(=O)(=O)N1CCCSC(C)(C)[C@@H]1C(=O)NO
27 | 49 nM | COc1ccc(S(=O)(=O)N2CCCCCC2C(=O)NO)cc1 (centres undefined)
28 | 1 nM | CC1(C)SCCCN(S(=O)(=O)c2ccc(-c3ccccn3)s2)[C@H]1C(=O)NO
29 | 2.3 nM | CC1(C)SCCCN(S(=O)(=O)c2ccc(Oc3ccccc3)cc2)[C@H]1C(=O)NO

Molecular target: 72 kDa type IV collagenase (Homo sapiens, UniProt P08253)
Sequence (P08253 whole entry): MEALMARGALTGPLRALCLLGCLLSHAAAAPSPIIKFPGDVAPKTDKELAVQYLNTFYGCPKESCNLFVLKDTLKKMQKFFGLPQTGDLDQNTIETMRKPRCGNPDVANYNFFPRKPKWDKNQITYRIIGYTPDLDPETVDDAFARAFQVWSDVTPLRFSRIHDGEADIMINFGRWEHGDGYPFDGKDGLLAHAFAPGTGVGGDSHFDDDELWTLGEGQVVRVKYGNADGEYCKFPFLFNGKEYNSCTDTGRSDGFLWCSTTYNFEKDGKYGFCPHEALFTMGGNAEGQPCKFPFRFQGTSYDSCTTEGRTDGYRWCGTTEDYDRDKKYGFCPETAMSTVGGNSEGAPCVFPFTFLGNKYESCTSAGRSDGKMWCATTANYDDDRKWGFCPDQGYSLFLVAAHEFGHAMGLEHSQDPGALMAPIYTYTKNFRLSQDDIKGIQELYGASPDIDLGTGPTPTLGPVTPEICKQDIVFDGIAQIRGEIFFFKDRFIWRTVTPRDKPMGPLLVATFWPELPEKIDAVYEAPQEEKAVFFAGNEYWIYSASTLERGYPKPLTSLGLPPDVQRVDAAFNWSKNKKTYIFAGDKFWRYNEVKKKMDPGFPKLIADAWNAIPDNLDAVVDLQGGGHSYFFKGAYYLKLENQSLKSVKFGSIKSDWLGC
Description: In vitro inhibitory activity against gelatinase-A (matrix metalloprotease-2).

Row | IC50 | Compound
30 | 5.2 nM | COc1ccc(S(=O)(=O)N2C[C@@H](O)CS(=O)(=O)C(C)(C)[C@@H]2C(=O)NO)cc1
31 | 1 nM | CCCCOc1ccc(S(=O)(=O)N2CCCSC(C)(C)[C@@H]2C(=O)NO)cc1
32 | 4.2 nM | COc1ccc(S(=O)(=O)N2CCCSC[C@@]2(C)C(=O)NO)cc1
33 | 1.8 nM | COCOC1CSC(C)(C)[C@H](C(=O)NO)N(S(=O)(=O)c2ccc(OC)cc2)C1 (some centres undefined)
34 | 6.8 nM | CC1(C)SCCCN(S(=O)(=O)c2ccc(Br)cc2)[C@H]1C(=O)NO
35 | 1.3 nM | CC1(C)SCCCN(S(=O)(=O)c2ccc(-c3ccc(F)cc3)cc2)[C@H]1C(=O)NO
36 | 14 nM | COc1ccc(S(=O)(=O)N2CCS(=O)(=O)C(C)(C)[C@@H]2C(=O)NO)cc1
37 | 20 nM | CC1(C)[C@H](C(=O)NO)N(S(=O)(=O)c2ccc(Br)cc2)CCCS1(=O)=O
38 | 24 nM | Cc1cc(Br)ccc1S(=O)(=O)N1CCCSC(C)(C)[C@@H]1C(=O)NO
39 | 1 nM | CC1(C)SCCCN(S(=O)(=O)c2ccc(-c3ccccn3)s2)[C@H]1C(=O)NO

Molecular target: Collagenase 3 (Homo sapiens, UniProt P45452)
Description: In vitro inhibitory activity against collagenase-3 (matrix metalloprotease-13).

Row | IC50 | Compound
40 | 1 nM | COc1ccc(S(=O)(=O)N2CCOCC2C(=O)NO)cc1 (centres undefined)
41 | 1.3 nM | COc1ccc(S(=O)(=O)N2C[C@@H](O)CS(=O)(=O)C(C)(C)[C@@H]2C(=O)NO)cc1
42 | 2.3 nM | CCCCOc1ccc(S(=O)(=O)N2CCCSC(C)(C)[C@@H]2C(=O)NO)cc1
43 | 1.7 nM | COc1ccc(S(=O)(=O)N2CCNCC2C(=O)NO)cc1 (centres undefined)
44 | 4 nM | COc1ccc(S(=O)(=O)N2CCCSC[C@@]2(C)C(=O)NO)cc1
45 | 2.1 nM | CCCCCc1ccc(S(=O)(=O)N2CCCSC(C)(C)[C@@H]2C(=O)NO)cc1
46 | 1.4 nM | COCOC1CSC(C)(C)[C@H](C(=O)NO)N(S(=O)(=O)c2ccc(OC)cc2)C1 (some centres undefined)
47 | 1.3 nM | CC1(C)SCCCN(S(=O)(=O)c2ccc(Br)cc2)[C@H]1C(=O)NO
48 | < 1 nM | CC1(C)SCCCN(S(=O)(=O)c2ccc(-c3ccc(F)cc3)cc2)[C@H]1C(=O)NO
49 | 4.3 nM | COc1ccc(S(=O)(=O)N2CCS(=O)(=O)C(C)(C)[C@@H]2C(=O)NO)cc1
50 | 2.7 nM | CC1(C)[C@H](C(=O)NO)N(S(=O)(=O)c2ccc(Br)cc2)CCCS1(=O)=O
51 | 9.2 nM | Cc1cc(Br)ccc1S(=O)(=O)N1CCCSC(C)(C)[C@@H]1C(=O)NO
52 | 1.8 nM | COc1ccc(S(=O)(=O)N2CCCCCC2C(=O)NO)cc1 (centres undefined)
53 | < 0.2 nM | CC1(C)SCCCN(S(=O)(=O)c2ccc(-c3ccccn3)s2)[C@H]1C(=O)NO
54 | < 0.4 nM | CC1(C)SCCCN(S(=O)(=O)c2ccc(Oc3ccccc3)cc2)[C@H]1C(=O)NO
